According to patent US20120082659A1, “Methods And Compositions Related To Synergistic Responses To Oncogenic Mutations” (priority 2007, published 2012):

Key:
mp53/Ras cells [1] = test: Proliferation and morphology of mp53/Ras cells in adherent culture; assay type: cell-based, mouse; conditions: for cell proliferation over time: mp53/Ras cells, 2.5 mM
Description: (§1) These compounds affect human cancer cell line behavior in vitro in the millimolar range and even higher concentrations are required in vivo (Villar-Garea and Esteller, 2004).

mp53/Ras cells [2] = test: Xenograft tumor formation by mp53/Ras cells in nude mice; assay type: in vivo, mouse; conditions: for tumor formation in nude mice by drug-pre-treated cells: mp53/Ras cells pre-treated in vitro with 2.5 mM, xenograft, vs untreated cells; for % Change in Tumor Volume (Perturbed vs. Control): mp53/Ras cells with gene perturbation, s.c. in nude mice, 4 weeks, vs matched vector control
Description: (§2) Murine mp53/Ras cells were grown at 39° C. for 2 days prior to injection. Human HT-29 and DLD-1 cells were grown in standard conditions, described above. Tumor formation was assessed by sub-cutaneous injection of 5×10^5 cells (mp53/Ras and DLD-1 cells) or 1.25×10^5 cells (HT-29) into CD-1 nude mice (Cr1:CD-1-Foxn1nu, Charles River Laboratories) in appropriate media (RPMI 1640 or DMEM) with no additives. For each replicate of all gene perturbations, 2-12 injections were performed for perturbed cells and vector controls, as indicated in FIGS. 12 and 16. Tumor size was measured by caliper at 2, 3 and 4 weeks post-injection. Tumor volume was calculated by the formula volume=(4/3)πr3, using the average of two radius measurements. Tumor reduction was calculated based on the average tumor volume following each gene perturbation as compared to the directly matched vector control tumors. Statistical significance of difference in tumor size was calculated by the Wilcoxn signed-rank test (Hollander, M. & Wolfe, D. A. Nonparametric Statistical Methods (Wiley-Interscience, Hoboken, N.J., 1998)), comparing tumors derived from perturbed cells with tumors induced by directly matching vector control cells.
Tumor formation was assessed by sub-cutaneous injection of cells into CD-1 nude mice (Cr1: CD-1-Foxn1^nu, Charles River Laboratories). Tumor size was measured by caliper at 2, 3 and 4 weeks post-injection. Significance of difference in tumor size was calculated by the Wilcoxn signed-rank test and by the t-test using directly matching vector control cells for each perturbation.
For tumor formation studies, cells were treated with HDACi as indicated above, then trypsinized, counted and injected sub-cutaneously into the flanks of CD-1 nude mice at a multiplicity of 5×10^5 cells per injection. Mice were observed and tumors measured for 4 weeks post-injection by caliper.
Murine mp53/Ras cells were grown at 39° C. for 2 days prior to injection. Human CaPan-2 and PC3 cells were grown in standard conditions, described above. Tumor formation was assessed by sub-cutaneous injection of 5×10^5 mp53/Ras cells or 7.5×10^5 CaPan-2 or PC3 cells into CD-1 nude mice (Cr1: CD-1-Foxn1^nu, Charles River Laboratories) in appropriate media (RPMI 1640 or DMEM) with no additives. For each replicate of all gene perturbations, 2-12 injections were performed for perturbed cells and vector controls. Tumor size was measured by caliper weekly for up to 6 weeks post-injection. Tumor volume was calculated by the formula volume=(4/3)πr^3, using the average of two radius measurements. Tumor reduction was calculated based on the average tumor volume following each gene perturbation as compared to the directly matched vector control tumors. Statistical significance of difference in tumor size was calculated by both the Wilcoxn signed-rank test and the t-test to assess consistency of significance calls, comparing tumors derived from perturbed cells with tumors induced by directly matching vector control cells.

[3] = test system: cooperation response genes; test: TLDA QPCR of CRG expression in HDACi-treated mp53/Ras cells; assay type: cell-based, mouse; conditions: 2.5 mM, 3 days, 56 CRGs tested by TLDA
Description: The YAMC cell system (Jat et al., 1991; Whitehead et al., 1993) and transformation of these cells by mp53/Ras are described elsewhere (Xia and Land, 2007). YAMC and mp53/Ras cells were cultured for two days at 39° C. in RPMI with 10% FBS without interferon-γ on collagen IV-coated dishes. Cells were then re-plated on collagen IV-coated dishes into the same medium containing either 2.5 mM NB, 2.5 mM VA, or no drug for 72 hours at a density of 4.58×10^5 cells per 15-cm dish. Cells were harvested for RNA isolation at this point, or used for biological assays as described below.
The TaqMan Low-Density Array (Applied Biosystems) consists of TaqMan qPCR reactions targeting the cooperation response genes available and control genes (18S rRNA, GAPDH) in a microfluidic card. TLDA were used to independently test gene expression differences observed in the CMap database which used Affymetrix arrays. To generate cDNA for qPCR analysis, quadruplicate samples of RNA was isolated from untreated YAMC cells or mp53/Ras cells treated with either 2.5 mM VA, 2.5 mM NB or no drug for 72 hours, using the RNeasy and Qiashredder kits (Qiagen). Ten μg of RNA per sample were mixed with 1× SuperScript II First Strand buffer, 10 mM DTT, 400 μM dNTP mixture, 0.3 ng random hexamer primer, 2 μL RNaseOUT RNase inhibitor and 2 μL of SuperScript II reverse transcriptase in a 100 μL reaction (all components from Invitrogen). RT reactions were carried out by denaturing RNA at 70° C. for 10 minutes, plunging RNA on to ice, adding other components, incubating at 42° C. for 1 hour and heat inactivating the RT enzyme by a final incubation at 70° C. for 10 minutes.
For each sample, 82 μL of cDNA was combined with 328 μl of nuclease free water (Invitrogen) and an equal volume of TaqMan Universal PCR Master Mix No AmpErase UNG (Applied Biosystems). The mixture was loaded into each of 8 ports on the card at 100 μL per port. Each reaction contained forward and reverse primer at a final concentration of 900 nM and a TaqMan MGB probe (6-FAM) at 250 nM final concentration. […]. The real-time RT-PCR amplifications were run on an ABI Prism 7900HT Sequence Detection System (Applied Biosystems) with a TaqMan Low Density Array Upgrade. Thermal cycling conditions were as follows: 2 min at 50° C., 10 min at 94.5° C., 40 cycles of 97° C. for 30 seconds, and annealing and extension at 59.7° C. for 1 minute. Each individual replicate cDNA sample was processed on a separate card.
Gene expression values were derived using SDS 2.2 software package (Applied Biosystems). Differential gene expression was calculated by the ΔΔCt method. Briefly, using threshold cycle (Ct) for each gene, change in gene expression was calculated for each sample comparison by the formulae: […]

mp53/Ras cells [4] = test: Cell death / anoikis by TUNEL staining, mp53/Ras cells; assay type: cell-based, mouse; conditions: methylcellulose without FBS or ITS-A
Description: (§3) The cells were re-plated at 458,000 cells per 15 cm dish in 10% FBS medium and treated for three days with 2.5 mM NB or VA at 39° C. Cells were then trypsinized and (A), (B) suspended in methylcellulose supplemented with fresh NB or VA, 10% FBS, and ITS-A at 37,000 cells per mL, or (C) suspended in methylcellulose w/o FBS, or ITS-A at 150,000 cells per mL and incubated at 39° C. for three days. Cells were extracted from the methylcellulose by repeated re-suspension in PBS w/1% BSA and centrifugation, and briefly trypsinized to break up cell aggregates. The extracted cells were labeled with 10 μM BrdU for ninety minutes prior to harvesting, fixed in cold 80% ethanol, and stained with an anti-BrdU antibody and propidium iodide to measure cell cycle progression (A), or fixed in 4% paraformaldehyde, and TUNEL-stained to measure cell death (B), (C). Error bars represent standard deviation values derived from multiple independent measurements for each sample. […]
(§4) For anoikis assays, cells were then trypsinized, counted and suspended in methylcellulose at a density of 1.5×10^5 cells/mL for an additional 72 hours in the absence of HDACi. […]
(§5) Paraformaldehyde-fixed cells were pelleted and washed with PBS containing 0.1% BSA. […] TUNEL-stained cells were analyzed by flow cytometry using a FACScalibur (Becton Dickinson). The percentage of TUNEL-positive cells was analyzed using ModFit LT for Mac v2.0.

YAMC cells [5] = test: Cell death / anoikis by TUNEL staining, YAMC cells; assay type: cell-based, mouse; conditions: methylcellulose without FBS or ITS-A
Description: as §3, §4, §5

YAMC cells [6] = test: Proliferation and morphology of YAMC cells in adherent culture; assay type: cell-based, mouse; conditions: 5 mM, three days, 10% FBS medium
Description: as §1

HT-29 cells = test: Xenograft tumor formation by HT-29 colon cancer cells in nude mice; assay type: in vivo, human; conditions: HT-29 cells with gene perturbation, vs matched vector control
Description: as §2

Compound	cell proliferation over time (mp53/Ras cells [1])	tumor formation in nude mice by drug-pre-treated cells (mp53/Ras cells [2]; four weeks)	proportion of CRGs whose expression is significantly altered (reversal of CRG signature) [3] [%]	% Change in Tumor Volume (Perturbed vs. Control) (mp53/Ras cells [2]) [%]	also measured
CCCC(=O)[O-].[Na+] [sodium butyrate]	completely inhibited	significantly smaller tumors	~55		cell morphology (mp53/Ras cells [1]; transformed cells, 5 mM, three days, 10% FBS medium): dramatic morphological change; NB Tumors (mp53/Ras cells [2]; mp53/Ras cells treated with 2.5 mM NB for three days before injection, 500,000 cells s.c. in CD1 nude mice, four weeks, tumors/injections): 1/16; proportion of CRGs whose expression is significantly altered (reversal of CRG signature) ([3]; listed as NB): about 55%; increase in cell death (TUNEL) (mp53/Ras cells [4]): greater than five-fold; apoptosis (TUNEL) (YAMC cells [5]): did not decrease apoptosis; cell morphology (YAMC cells [6]): unaffected
Sod3: shRNA-dependent stable knock-down of up-regulated CRG Sod3 (retroviral) (sense GGCGACACGCATGCCAAAG; target site or template, no part of the molecule)				−72	
Slc14a1: shRNA-dependent stable knock-down of up-regulated CRG Slc14a1 (retroviral) (sense TCCTGATTCTGGTGGGACT; the letters are possibly those of the target site)				180	
Rgs2: shRNA-dependent stable knock-down of up-regulated CRG Rgs2 (retroviral) (sense GCGCAGCTCTGGGCAGAAG; the letters are possibly those of the target site)				−60	
Plac8: shRNA-dependent stable knock-down of up-regulated CRG Plac8 (retroviral) (sense CTGGCAGACCAGCCTGTGTTT; the letters are possibly those of the target site)				−100	% Change in Tumor Volume (Perturbed vs. Control) (HT-29 cells): −100.00%
CCCC(CCC)C(=O)O [valproic acid]	completely inhibited	significantly smaller tumors	~55		proportion of CRGs whose expression is significantly altered (reversal of CRG signature) ([3]; listed as VA): about 55%
